Assays:
wild-type HIV-1 PR = biological target: T1, wild-type HIV-1 PR (Human immunodeficiency virus type 1 group M subtype B, UniProt P04585); test: In vitro HIV-1 PR activity assay (FRET); assay type: biochemical
T1 construct: HIV-1 protease was cloned and heterologously expressed in Escherichia coli and purified; made in house; host or cells: Escherichia coli
Description: (§1) The inhibitory effect of all new designed inhibitors were measured using fluorescence resonance energy transfer (FRET) method. […] The energy transfer donor (EDANS) and acceptor (DABCYL) dyes are labeled at two ends of the peptide to perform FRET. Excitation and emission wavelengths were set at 340 nm and 490 nm. Inhibitors were dissolved in dimethylsulfoxide (DMSO) and diluted to appropriate concentrations. HIV-1 protease was cloned and heterologously expressed in Escherichia coli and purified. The experiment was carried out in 96-well plates. The FRET assay reaction buffer contained 0.1 M sodium acetate, 1 M sodium chloride, 1 mM ethylenediaminetetraacetic acid (EDTA), 1 mM dithiothreitol (DTT), 2% DMSO and 1 mg/mL bovine serum albumin (BSA) with an adjusted pH 4.7. Protease and inhibitor were mixed and incubated for 20–30 mins at room temperature and then the substrate was added. Each reaction was recorded for about 10 mins. From plots of concentration versus the calculated percent inhibition, IC50 values were determined.
as §1, with “20-30” for “20–30”, “mins.” for “mins. From plots of concentration versus the calculated percent inhibition, IC50 values were determined.”

wild-type HIV-1 variants = test: HIV-1 infectivity assay, wild-type; assay type: cell-based; conditions: Human immunodeficiency virus 1, read-out: inhibition against wild-type HIV-1 variants
Description: (§2) . Inhibitors dissolved in dimethylsulfoxide (DMSO) and diluted to appropriate concentrations, were added into culture medium at 5 hours of post-transfection. After incubating for 48 hours at temperature 37 °C, pseudotyped viruses in 10 μL of supernatant were used to infect SupT1 cells for 48 hours, followed by measuring luciferase activity of newly infected cells using Centro LB960 (Berthold).
For the assay using wild type HIV-1, 1×10^6 SupT1 cells were infected with 100 μL HIV-1 NL4-3 in the presence of 100 nM chemicals and 10 μg/mL polybrene, keeping a total volume of 500 μL (Spin infection at 1800rpm, 45min). Cells were washed once in the next morning and medium were replaced with fresh medium containing 100 nM chemicals. At 48 hpi, viruses were harvested and 50 μL of viruses were used to infect TZM-bl cells, followed by measuring luciferase activity in the infected cells.
(§3) Fig 6 Inhibition of inhibitors against wild-type and DRV-resistant HIV-1 variants.

[1] = test system: DRV-resistant HIV-1 variants; test: HIV-1 infectivity assay, DRV-resistant; assay type: cell-based; conditions: Human immunodeficiency virus 1, read-out: inhibition against DRV-resistant HIV-1 variants
Description: as §2, §3

[2] = Cytotoxicity assay (cell counting kit-8); assay type: cell-based; conditions: human; 293T cells, CCK-8, 24h exposure
Description: Selected inhibitors were further evaluated in cytotoxicity assay using a cell counting kit-8 assay. […] After 24h of culture, 1μL of drugs were added to each well. After another 24h of culture, 10 μL of CCK-8 was added to each well. Absorbance was quantified at wavelength 450 nm using an EnVision multilabel reader (PerkinElmer) after 2h at room temperature.

HIV-1 protease = test system: HIV-1 protease; parameters: method as in PMID 32057582; conditions: previously reported PIs; cited from earlier work

With COc1ccc(S(=O)(=O)N(C[C@@H](O)[C@H](Cc2ccccc2)NC(=O)[C@@H]2CCCNC2)C2CC2)cc1 [22a, (R)-N-((2S,3R)-4-((N-cyclopropyl-4-methoxyphenyl)sulfonamido)-3-hydroxy-1-phenylbutan-2-yl)piperidine-3-carboxamide] the IC50 (wild-type HIV-1 PR) was 0.00361 µM, the “improvement of potency over 23a” value (wild-type HIV-1 PR; ratio of IC50 values, (R)- vs (S)-configuration) was 120 fold and the inhibition at 10 µM (wild-type HIV-1 variants) was 42%. The inhibition at 10 µM [1] was 26%, the CC50 at 24 h [2] was > 100 µM and the melting point was 162.8 to 164.3 °C.
For COc1ccc(S(=O)(=O)N(C[C@@H](O)[C@H](Cc2ccccc2)NC(=O)OCCN2CCOCC2)C2CC2)cc1 [A], the IC50 (HIV-1 protease) is given as 0.053 µM.
With O=C(N[C@@H](Cc1ccccc1)[C@H](O)CN(C1CC1)S(=O)(=O)c1ccc(C(F)(F)F)cc1)[C@@H]1CCCNC1 [22b, (R)-N-((2S,3R)-4-((N-cyclopropyl-4-(trifluoromethyl)phenyl)sulfonamido)-3-hydroxy-1-phenylbutan-2-yl)piperidine-3-carboxamide] the IC50 (wild-type HIV-1 PR) was 0.00835 ± 0.00558 µM, the CC50 at 24 h [2] was > 100 µM and the melting point was 204.8 to 206.3 °C.
In the case of O=C(N[C@@H](Cc1ccccc1)[C@H](O)CN(C1CC1)S(=O)(=O)c1ccc(C(F)(F)F)cc1)N1CCOCC1 [B], the IC50 (HIV-1 protease) is listed as 0.047 µM.
COc1ccc(S(=O)(=O)N(C[C@@H](O)[C@H](Cc2ccccc2)NC(=O)[C@@H]2CCCN(C)C2)C2CC2)cc1 [24a, (R)-N-((2S,3R)-4-((N-cyclopropyl-4-methoxyphenyl)sulfonamido)-3-hydroxy-1-phenylbutan-2-yl)-1-methylpiperidine-3-carboxamide] showed an IC50 (wild-type HIV-1 PR) of 0.00807 ± 0.00359 µM, an inhibition at 10 µM (wild-type HIV-1 variants) of 16% and an inhibition at 10 µM [1] of 8%. For the same compound, the CC50 at 24 h [2] was > 100 µM and the melting point was 86.4 to 88.2 °C.
For Nc1ccc(S(=O)(=O)N(C[C@@H](O)[C@H](Cc2ccccc2)NC(=O)[C@@H]2CCCNC2)C2CC2)cc1 [22d, (R)-N-((2S,3R)-4-((4-amino-N-cyclopropylphenyl)sulfonamido)-3-hydroxy-1-phenylbutan-2-yl)piperidine-3-carboxamide], the IC50 (wild-type HIV-1 PR) was 0.0101 ± 0.00671 µM, the CC50 at 24 h [2] was > 100 µM and the melting point was 216.5 to 218.3 °C.
CN1CCC[C@@H](C(=O)N[C@@H](Cc2ccccc2)[C@H](O)CN(C2CC2)S(=O)(=O)c2ccc(C(F)(F)F)cc2)C1 [24b, (R)-N-((2S,3R)-4-((N-cyclopropyl-4-(trifluoromethyl)phenyl)sulfonamido)-3-hydroxy-1-phenylbutan-2-yl)-1-methylpiperidine-3-carboxamide] gave an IC50 (wild-type HIV-1 PR) of 0.00928 ± 0.00566 µM, an inhibition at 10 µM (wild-type HIV-1 variants) of 12% and an inhibition at 10 µM [1] of 7%. For the same compound, the CC50 at 24 h [2] was > 100 µM and the melting point was 82.9 to 84.7 °C.

Reference: publication PMC7375528, “Piperidine scaffold as the novel P2-ligands in cyclopropyl-containing HIV-1 protease inhibitors: Structure-based design, synthesis, biological evaluation and docking study” (PLoS ONE, 2020)
